The test system of test [1] is Sprague-Dawley rats treated with mCPP. The test can be described thus: Social interaction test, mCPP-induced anxiety. In kind it is in vivo, rat. The source says: (§1) Experienced observers blinded to the experimental conditions carried out the social interaction test in a square open field (60 cm by 60 cm, with 16 15×15 cm squares marked out on the floor). Pairs of rats receiving the same treatment were placed in the arena and the onset of social interactions recorded. This procedure has been validated by previous studies (Overstreet et al. (2002); Overstreet et al. (2003)). Rats were unfamiliar with the open field and lighting conditions were low in order to generate an intermediate level of anxiety-related behavior. Rat pairs matched according to weight and treatment were placed simultaneously in the open field. During the 5-min session, line crosses (by two forepaws) and time spent in social interaction (grooming, sniffing, following) were scored individually for each rat (Kampov-Polevoy et al., 2000; Overstreet et al., 2002, 2003).
(§2) Fifteen min later the rats received a second injection of 0.5 mg/kg DMCM (methyl 6,7-demethoxy-4-ethyl-β-carboline-3-carboxylate) or vehicle (acidified saline). The rats were placed in the open field arena 15 min after the second injection for recording social interaction and locomotor activity for 5-min. Approximately one week later the rats were treated with Compound A (3.75, 7.5 or 15 mg/kg). The 5-HT2C agonist mCPP (m-chlorophenylpiperazine; 0.5 mg/kg) or vehicle (saline) was given 15 min later. After another 15 min period, the social interaction and locomotor activity for five min were recorded.

For test [2], the system named is Sprague-Dawley rats treated with DMCM. Nature of the test: Social interaction test, DMCM-induced anxiety. The format is in vivo, rat. Conditions: 0.5 mg/kg DMCM.
Description: as §1, §2

For test [3], the target named is T1, hALDH2 (recombinant human mitochondria ALDH) (Homo sapiens, UniProt P05091).
T1 sequence (P05091 18-517): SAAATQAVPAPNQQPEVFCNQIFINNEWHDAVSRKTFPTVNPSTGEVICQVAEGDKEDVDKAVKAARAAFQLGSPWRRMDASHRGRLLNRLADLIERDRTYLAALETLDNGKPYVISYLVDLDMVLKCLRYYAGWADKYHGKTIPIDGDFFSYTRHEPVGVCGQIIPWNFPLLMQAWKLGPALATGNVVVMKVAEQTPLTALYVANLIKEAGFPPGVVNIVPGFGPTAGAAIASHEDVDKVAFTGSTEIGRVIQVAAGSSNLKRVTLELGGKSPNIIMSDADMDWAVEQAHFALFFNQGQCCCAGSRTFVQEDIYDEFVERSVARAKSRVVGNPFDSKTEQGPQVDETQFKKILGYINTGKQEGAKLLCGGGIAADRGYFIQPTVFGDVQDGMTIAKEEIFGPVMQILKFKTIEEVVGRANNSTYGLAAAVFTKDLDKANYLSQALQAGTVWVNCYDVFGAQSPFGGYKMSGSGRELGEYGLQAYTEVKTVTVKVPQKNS
The test can be described thus: ALDH2 inhibition assay (NADH formation, formaldehyde substrate). The format is biochemical. To be noted: for inhibition at 1 µM: read-out: hALDH2 inhibition (IC50 hALDH2 column). A digest of the protocol: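 1 nM enzyme in 50 mM sodium phosphate pH 7.4 with 1.2 mM NAD+ and compound at 0.03–1000 nM; reaction started with 0.15 mM formaldehyde at 25 °C. NADH formation followed by fluorescence (ex 340/em 460 nm). IC50 from sigmoidal fits with floating Hill slope; apparent Ki from Morrison equation if tight binding.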

The target of another test is T2, hMAO-B (Homo sapiens, UniProt P27338).
T2 construct: purchased Sigma M7441
T2 sequence (P27338 1-520): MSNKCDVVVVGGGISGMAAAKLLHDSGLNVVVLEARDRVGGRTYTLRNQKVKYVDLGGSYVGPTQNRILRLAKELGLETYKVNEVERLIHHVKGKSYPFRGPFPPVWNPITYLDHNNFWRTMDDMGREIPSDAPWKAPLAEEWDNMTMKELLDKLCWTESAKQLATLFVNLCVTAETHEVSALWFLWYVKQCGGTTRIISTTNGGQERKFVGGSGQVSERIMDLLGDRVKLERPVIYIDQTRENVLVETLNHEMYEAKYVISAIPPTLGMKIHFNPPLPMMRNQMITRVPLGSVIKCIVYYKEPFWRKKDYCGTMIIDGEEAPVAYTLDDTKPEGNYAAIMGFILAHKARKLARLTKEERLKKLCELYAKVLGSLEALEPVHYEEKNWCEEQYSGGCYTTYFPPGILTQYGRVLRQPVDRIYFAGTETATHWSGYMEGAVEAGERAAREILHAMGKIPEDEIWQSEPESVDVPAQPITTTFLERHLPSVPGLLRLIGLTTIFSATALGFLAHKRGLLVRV
Nature of the test: MAO-B inhibition assay (Amplex Red, horseradish peroxidase-coupled). In kind it is biochemical. Conditions: for inhibition at 10 µM: read-out: hMAO-B inhibition (IC50 hMAO-B); for inhibition at 10 µM / hMAO-B inhibition (IC50 hMAO-B): at 10 μM. The method, then:
MAO-A (Sigma M7316) and MAO-B (Sigma M7441) inhibition assays were conducted in 96-well micro-plates according to the method described by Zhou et al. [Analytical Biochemistry 253, 169-174, 1997]. Both assays were performed in potassium phosphate buffer (0.1 M, pH 7.5) containing 0.5 mM tyramine (Sigma T2879), 0.12 mM N-acetyl-3,7-dihydrophenoxazine (Amplex Red, Invitrogen A12222), 1.2 unit/ml horseradish peroxidase (Sigma P2088), 0.6 unit/ml MAO-A or 2.5 unit/ml MAO-B, and various concentrations of test compounds (0.1 nM to 10 uM). Reactions were initiated by the addition of a pre-mixed solution of tyramine, horseradish peroxidase and Amplex Red, and were allowed to proceed at 37° C. for 30 min. Enzyme activities were determined by measuring absorbance at 570 nm (SpectralMax Plate reader), absorbance of oxidized Amplex Red generated by this horseradish peroxidase-coupled reaction. Nonspecifically formed products were determined in the presence of 2 and 10 µM clorgyline and deprenyl for MAO-A and MAO-B, respectively. IC50 values were determined by fitting concentration-inhibition data to sigmoidal dose-response curves with two-floating parameters: IC50 and Hill coefficient.

Molecules are shown by their SMILES. Where “and” joins values, the source holds several entries; their conditions need not be identical. Equal values may be shown once.

As a reminder, the IC50 is the concentration that gives 50% inhibition. The inhibition is the change of the read-out against control, counted positive when it falls.

Consider `Clc1cccc(N2CCNCC2)c1` [mCPP, m-chlorophenylpiperazine], for which the “social interaction (effect of anxiogenic agent)” value in test [1] (0.5 mg/kg mCPP, 15 min before test) is recorded as “low social interaction score”. In addition, in test [1] (0.5 mg/kg mCPP, compared to controls), the “locomotor activity (effect of anxiogenic agent)” value is “reduced locomotor activity”. Further, in test [1] (rats receiving mCPP 0.5 mg/kg), the “locomotor activity compared to vehicle-treated rats receiving mCPP” value is recorded as “no effect”.

`CCc1c(C(=O)OC)ncc2[nH]c3cc(OC)c(OC)cc3c12` [DMCM, methyl 6,7-demethoxy-4-ethyl-β-carboline-3-carboxylate, reference compound]: the “social interaction (effect of anxiogenic agent)” value in test [2] (15 min before test) is “substantially reduced social interaction”. In test [2] (compared to controls), the “locomotor activity (effect of anxiogenic agent)” value was “reduced locomotor activity”.

Regarding `COC(=O)c1cccc(COc2ccc3c(=O)c(-c4ccc(O)cc4)coc3c2)c1` [PT-33, methyl 3-{[3-(4-hydroxyphenyl)-4-oxochromen-7-yloxy]methyl}benzoate], the IC50 in test [3] turned out to be 150 nM; against hMAO-B, 300 nM.

With `O=c1c(-c2ccc(O)cc2)coc2cc(OCc3noc(-c4ccc(F)cc4)n3)ccc12` [PT-11, 7-{[5-(4-fluorophenyl)(1,2,4-oxadiazol-3-yl)]methoxy}-3-(4-hydroxyphenyl)chromen-4-one], in test [3], the 50% inhibitory concentration (IC50) was 16 nM and 20 nM. Also, the inhibition at 10 µM on hMAO-B was 35%.

Take `CS(=O)(=O)Nc1ccc(-c2c(O)oc3cc(OCc4cccc(C(=O)O)c4)ccc3c2=O)cc1` [PT-111, 3-[(2-hydroxy-3-{4-[(methylsulfonyl)amino]phenyl}-4-oxochromen-7-yloxy)methyl]-benzoic acid]: the IC50 in test [3] amounted to 3 nM. For the same compound, the inhibition at 10 µM at hMAO-B came out at 30%.

`O=c1c(-c2ccc(O)cc2)coc2cc(OC[C@H](O)CNCc3cccc(C(F)(F)F)c3)ccc12` [PT-53, 7-[(2R)-2-hydroxy-3-({[3-(trifluoromethyl)phenyl]methyl}amino)propoxy]-3-(4-hydroxyphenyl)chromen-4-one]: in test [3], the IC50 is 16 nM. On hMAO-B, the “hMAO-B inhibition (IC50 hMAO-B)” value was determined as 19% and the inhibition at 10 µM came to 19%.

For `O=c1c(-c2ccc(O)cc2)coc2cc(OCc3ccncc3)ccc12` [PT-82, 3-(4-hydroxyphenyl)-7-(4-pyridylmethoxy)chromen-4-one], the IC50 in test [3] stood at 5 nM. Moreover, the inhibition at 10 µM at hMAO-B came to 15%.

Regarding `O=c1c(-c2ccc(O)cc2)coc2cc(OC[C@H](O)Cc3ccccc3)ccc12` [PT-109, 7-((2R)-2-hydroxy-3-phenylpropoxy)-3-(4-hydroxyphenyl)chromen-4-one], in test [3], the concentration for half-maximal inhibition (IC50) is 14 nM. Also, the inhibition at 10 µM on hMAO-B amounted to 26%.

For the compound `O=C(COc1ccc2c(=O)c(-c3ccc(O)cc3)coc2c1)Nc1ccccc1C(F)(F)F` [PT-84, 2-[3-(4-hydroxyphenyl)-4-oxochromen-7-yloxy]-N-[2-(trifluoromethyl)phenyl]-acetamide], the IC50 in test [3] turned out to be 15 nM. The inhibition at 10 µM at hMAO-B was determined as 20%.

Turning to `O=c1c(-c2ccc(O)cc2)coc2cc(OC[C@H](O)CNCc3cc(F)cc(F)c3)ccc12` [PT-55, 7-((2R)-3-{[(3,5-difluorophenyl)methyl]amino}-2-hydroxypropoxy)-3-(4-hydroxyphenyl)chromen-4-one], the IC50 in test [3] is 8 nM. For the same compound, at hMAO-B, the “hMAO-B inhibition (IC50 hMAO-B)” value is reported as 14% and the inhibition at 10 µM stood at 14%.

Take `O=c1c(-c2ccc(O)cc2)coc2cc(OCc3nnc(-c4ccccc4Cl)s3)ccc12` [PT-64, 7-{[5-(2-chlorophenyl)(1,3,4-thiadiazol-2-yl)]methoxy}-3-(4-hydroxyphenyl)chromen-4-one]: the inhibition at 1 µM in test [3] stood at 43%. For the same compound, the inhibition at 10 µM on hMAO-B is 8%.

For the compound `Cc1nc(-c2ccc(C(F)(F)F)cc2)sc1COc1ccc2c(=O)c(-c3ccc(C#N)cc3)coc2c1` [PT-65, 4-[7-({4-methyl-2-[4-(trifluoromethyl)phenyl](1,3-thiazol-5-yl)}methoxy)-4-oxochromen-3-yl]benzenecarbonitrile], the inhibition at 1 µM in test [3] stood at 30%. The inhibition at 10 µM at hMAO-B came out at 25%.

For the compound `CS(=O)(=O)Nc1ccc(-c2coc3cc(OCc4noc(-c5cc(F)cc(C(F)(F)F)c5)n4)ccc3c2=O)cc1` [PT-70, 7-({5-[3-fluoro-5-(trifluoromethyl)phenyl](1,2,4-oxadiazol-3-yl)}methoxy)-3-{4-[(methylsulfonyl)amino]phenyl}chromen-4-one], the inhibition at 1 µM in test [3] is 20%. Also, the inhibition at 10 µM on hMAO-B worked out at 11%.

(Values after US20090124672A1 (priority 2007, published 2009).)
